{"source": "patent US6914045B2", "about": "“Glycopeptide antibiotics” (Wyeth Holdings Corporation, priority 2001, dated 2005)", "experiment_in_all_cases": "in vitro antibacterial evaluation, MIC by broth dilution", "assay_type_in_all_cases": "cell-based", "details_in_all_cases": "broth dilution, 18 hours at 35° C.", "key": {"Enterococcus sp.": {"test_system": "Enterococcus sp.", "description": "(§1) Methods for in vitro Antibacterial Evaluation (Table 1)\n(§2) The minimum inhibitory concentration (MIC), the lowest concentration of the antibiotic which inhibits growth of the test organism, is determined by the broth dilution method using Muller-Hinton II […] (Baltimore Biological Laboratories) following the recommendations of the National Committee for Clinical Laboratory Standards [Methods for dilution antimicrobial susceptibility tests for bacteria that grow aerobically, approved standard M7-A2, National Committee for Clinical Laboratory Standards, Villanova, Pa.].\n(§3) An inoculum level of 5×10^5 CFU/mL, and a range of antibiotic concentrations (64-0.06 μg/mL) is used. […] The test organisms include a spectrum of Gram-positive bacteria comprised of Staphylococcus sp., Streptococcus sp. and Enterococcus sp. These organisms include recent clinical isolates that are resistant to methicillin, penicillin and/or vancomycin."}, "Staphylococcus sp.": {"test_system": "Staphylococcus sp.", "description": "as §1, §2, §3"}, "Streptococcus sp.": {"test_system": "Streptococcus sp.", "description": "as §1, §2, §3"}, "Escherichia coli": {"test_system": "Escherichia coli", "method_in_brief": "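Broth dilution in Muller-Hinton II medium per NCCLS standard M7-A2, with an inoculum of 5×10^5 CFU/mL and antibiotic tested over 64-0.06 μg/mL. MIC was taken as the lowest concentration inhibiting visible growth.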"}}, "data": [{"smiles": "CC(C1CCCCC1)C1NC(=O)CNC(=O)C(CO)NC(=O)C(C(O)C2CNC(=N)N2C2OC(CO)C(O)C(O)C2O)NC(=O)C(C(O)C2CNC(=N)N2)NC(=O)C(CC2CCC(OC3OC(CO)C(OC4OC(CO)C(O)C(O)C4O)C(O)C3O)CC2)NC1=O", "note": "(stereo not shown) [Example 53a, Cyclo[3-[4-[(4-O-hexopyranosylhexopyranosyl)oxy]cyclohexyl]alanyl-3-(2-iminoimidazolidin-4-yl)seryl-3-(3-hexopyranosyl-2-iminoimidazolidin-4-yl)serylserylglycyl-3-cyclohexyl-2-aminobutanoyl]]", "values": [{"measurement": "MIC Enterococcus avium (GC 4558)", "setting": "Enterococcus sp.; Enterococcus avium (GC 4558)", "value": ">128", "unit": "µg/mL"}, {"measurement": "MIC Enterococcus faecalis (ATCC 29212)", "setting": "Enterococcus sp.; Enterococcus faecalis (ATCC 29212)", "value": ">128", "unit": "µg/mL"}, {"measurement": "MIC Enterococcus faecalis (GC 4552)", "setting": "Enterococcus sp.; Enterococcus faecalis (GC 4552)", "value": ">128", "unit": "µg/mL"}, {"measurement": "MIC Enterococcus faecalis (GC 4553)", "setting": "Enterococcus sp.; Enterococcus faecalis (GC 4553)", "value": ">128", "unit": "µg/mL"}, {"measurement": "MIC Enterococcus faecalis (GC 4554)", "setting": "Enterococcus sp.; Enterococcus faecalis (GC 4554)", "value": ">128", "unit": "µg/mL"}, {"measurement": "MIC Enterococcus faecalis (GC 6189)", "setting": "Enterococcus sp.; Enterococcus faecalis (GC 6189)", "value": ">128", "unit": "µg/mL"}, {"measurement": "MIC Enterococcus faecium (GC 2243)", "setting": "Enterococcus sp.; Enterococcus faecium (GC 2243)", "value": ">128", "unit": "µg/mL"}, {"measurement": "MIC Enterococcus faecium (GC 4556)", "setting": "Enterococcus sp.; Enterococcus faecium (GC 4556)", "value": ">128", "unit": "µg/mL"}, {"measurement": "MIC Enterococcus faecium (GC 4557)", "setting": "Enterococcus sp.; Enterococcus faecium (GC 4557)", "value": ">128", "unit": "µg/mL"}, {"measurement": "MIC Enterococcus faecalis (ATCC 29212)", "setting": "Enterococcus sp.; strain ATCC 29212", "value": ">128", "unit": "µg/mL"}, {"measurement": "MIC Enterococcus faecalis (GC 2242)", "setting": "Enterococcus sp.; strain GC 2242", "value": ">128", "unit": "µg/mL"}, {"measurement": "MIC Enterococcus faecium (GC 2243)", "setting": "Enterococcus sp.; strain GC 2243", "value": ">128", "unit": "µg/mL"}, {"measurement": "MIC Enterococcus faecalis (GC 2691)", "setting": "Enterococcus sp.; strain GC 2691", "value": ">128", "unit": "µg/mL"}, {"measurement": "MIC Enterococcus faecalis (GC 3059)", "setting": "Enterococcus sp.; strain GC 3059", "value": ">128", "unit": "µg/mL"}, {"measurement": "MIC Enterococcus faecalis (GC 4552)", "setting": "Enterococcus sp.; strain GC 4552", "value": ">128", "unit": "µg/mL"}, {"measurement": "MIC Enterococcus faecalis (GC 4553)", "setting": "Enterococcus sp.; strain GC 4553", "value": ">128", "unit": "µg/mL"}, {"measurement": "MIC Enterococcus faecalis (GC 4554)", "setting": "Enterococcus sp.; strain GC 4554", "value": ">128", "unit": "µg/mL"}, {"measurement": "MIC Enterococcus faecium (GC 4556)", "setting": "Enterococcus sp.; strain GC 4556", "value": ">128", "unit": "µg/mL"}, {"measurement": "MIC Enterococcus faecium (GC 4557)", "setting": "Enterococcus sp.; strain GC 4557", "value": ">128", "unit": "µg/mL"}, {"measurement": "MIC Enterococcus avium (GC 4558)", "setting": "Enterococcus sp.; strain GC 4558", "value": ">128", "unit": "µg/mL"}, {"measurement": "MIC Enterococcus faecalis (GC 6189)", "setting": "Enterococcus sp.; strain GC 6189", "value": ">128", "unit": "µg/mL"}, {"measurement": "MIC Staphylococcus aureus (ATCC 29213)", "setting": "Staphylococcus sp.; strain ATCC 29213", "value": ">128", "unit": "µg/mL"}, {"measurement": "MIC Staphylococcus aureus (GC 1131)", "setting": "Staphylococcus sp.; strain GC 1131", "value": ">128", "unit": "µg/mL"}, {"measurement": "MIC Staphylococcus aureus (GC 3051)", "setting": "Staphylococcus sp.; strain GC 3051", "value": ">128", "unit": "µg/mL"}, {"measurement": "MIC Staphylococcus aureus (GC 3053)", "setting": "Staphylococcus sp.; strain GC 3053", "value": ">128", "unit": "µg/mL"}, {"measurement": "MIC Staphylococcus aureus (GC 4541)", "setting": "Staphylococcus sp.; strain GC 4541", "value": ">128", "unit": "µg/mL"}, {"measurement": "MIC Staphylococcus aureus (GC 4542)", "setting": "Staphylococcus sp.; strain GC 4542", "value": ">128", "unit": "µg/mL"}, {"measurement": "MIC Staphylococcus aureus-SMITH (GC 4543)", "setting": "Staphylococcus sp.; strain GC 4543", "value": ">128", "unit": "µg/mL"}, {"measurement": "MIC Staphylococcus aureus (GC 4544)", "setting": "Staphylococcus sp.; strain GC 4544", "value": ">128", "unit": "µg/mL"}, {"measurement": "MIC Staphylococcus aureus (GC 4545)", "setting": "Staphylococcus sp.; strain GC 4545", "value": ">128", "unit": "µg/mL"}, {"measurement": "MIC Staphylococcus haemolyticus (GC 4546)", "setting": "Staphylococcus sp.; strain GC 4546", "value": ">128", "unit": "µg/mL"}, {"measurement": "MIC Coagulase Negative Staphylococcus (GC 4547)", "setting": "Staphylococcus sp.; strain GC 4547", "value": ">128", "unit": "µg/mL"}, {"measurement": "MIC Coagulase Negative Staphylococcus (GC 4548)", "setting": "Staphylococcus sp.; strain GC 4548", "value": ">128", "unit": "µg/mL"}, {"measurement": "MIC Coagulase Negative Staphylococcus (GC 4549)", "setting": "Staphylococcus sp.; strain GC 4549", "value": ">128", "unit": "µg/mL"}, {"measurement": "MIC Coagulase Negative Staphylococcus (GC 4551)", "setting": "Staphylococcus sp.; strain GC 4551", "value": ">128", "unit": "µg/mL"}, {"measurement": "MIC Streptococcus pneumoniae (ATCC 6301)", "setting": "Streptococcus sp.; strain ATCC 6301", "value": 64, "unit": "µg/mL"}, {"measurement": "MIC Streptococcus pneumoniae (GC 1894)", "setting": "Streptococcus sp.; strain GC 1894", "value": 32, "unit": "µg/mL"}, {"measurement": "MIC Streptococcus pyogenes (GC 4563)", "setting": "Streptococcus sp.; strain GC 4563", "value": 64, "unit": "µg/mL"}, {"measurement": "MIC Streptococcus agalactiae (GC 4564)", "setting": "Streptococcus sp.; strain GC 4564", "value": 64, "unit": "µg/mL"}, {"measurement": "MIC Streptococcus pneumoniae (GC 4565)", "setting": "Streptococcus sp.; strain GC 4565", "value": 64, "unit": "µg/mL"}, {"measurement": "MIC Escherichia coli (ATCC 25922)", "setting": "Escherichia coli; strain ATCC 25922", "value": ">128", "unit": "µg/mL"}, {"measurement": "MIC Escherichia coli (GC 4559)", "setting": "Escherichia coli; strain GC 4559", "value": ">128", "unit": "µg/mL"}, {"measurement": "MIC Escherichia coli (GC 4560)", "setting": "Escherichia coli; strain GC 4560", "value": ">128", "unit": "µg/mL"}]}]}
